Experimental findings from ChEMBL document CHEMBL1133204, “Synthesis and biological activities of an alpha-methyl and a beta-methyl carbapenem and the corresponding unsubstituted compound” (Bioorg Med Chem Lett, 2000) are described below.

The MIC is the smallest concentration in the dilution series that meets the test's criterion for growth inhibition. A lower MIC goes with inhibition by little substance. For orientation: half-life means the time needed for the level to fall by half in the phase considered. The low end stands for fast loss, the high end for slow loss.

Molecules are shown by their SMILES.

The subject of data set [1] is Staphylococcus aureus. Description: Minimum inhibitory concentration against Staphylococcus aureus in DIFCO nutrient agar after 18 hr incubation period at 37 degree C. It is filed as functional.
The test system of data set [2] is Staphylococcus aureus. The experiment in a line: Minimum inhibitory concentration against Staphylococcus aureus 1104 in DIFCO nutrient agar after 18 hr incubation period at 37 degree C. Type of data set: functional.
The nature of data set [3]: Minimum inhibitory concentration against S. Innsbruck in DIFCO nutrient agar after 18 h incubation period at 37 degree C.
Data set [4] concerns Pseudomonas aeruginosa. The experiment in a line: Minimum inhibitory concentration against Pseudomonas aeruginosa. res in DIFCO nutrient agar after 18 hr incubation period at 37 degree C. Type of data set: functional.
The target in the next data set is Beta-lactamase (Enterobacter cloacae, UniProt P05364). Description: Beta-Lactamase inhibition activity after 15 min of pre-incubation with the enzyme isolated from Enterobacter cloacae.
For a further data set, the target named is Beta-lactamase TEM (Escherichia coli, UniProt P62593). Description: Beta-Lactamase inhibition activity after 15 min of pre-incubation with the enzyme isolated from Escherichia coli 205 TEM.
The test system of data set [5] is Staphylococcus aureus. The experiment in a line: Minimum inhibitory concentration against Staph 25768 in DIFCO nutrient agar after 18 hr incubation period at 37 degree C. It is filed as functional.
Data set [6] concerns Escherichia coli. Description: Minimum inhibitory concentration against Escherichia coli 1103 in DIFCO nutrient agar after 18 hr incubation period at 37 degree C. Type of data set: functional.
The next data set concerns Enterococcus sp. The experiment in a line: Minimum inhibitory concentration against Enterobacter coccus in DIFCO nutrient agar after 18 hr incubation period at 37 degree C. Type of data set: functional.
The test system of data set [7] is Escherichia coli. Description: Minimum inhibitory concentration against Escherichia coli 205 TEM in DIFCO nutrient agar after 18 hr incubation period at 37 degree C. It is filed as functional.
Data set [8] is described as follows: Half life of hydrolysis of compound at pH 7.4, 37 degree C. Type of data set: ADME. Conditions: buffer.
The test system of data set [9] is Pseudomonas aeruginosa. Description: Minimum inhibitory concentration against Pseudomonas aeruginosa in DIFCO nutrient agar after 18 hr incubation period at 37 degree C. Type of data set: functional.
For another data set, the system named is Enterobacter cloacae. Description: Minimum inhibitory concentration against Enterobacter cloacae in DIFCO nutrient agar after 18 h incubation period at 37 degree C. Type of data set: functional.
The test system of data set [10] is Staphylococcus aureus. The experiment in a line: Minimum inhibitory concentration against Staphylococcus aureus res in DIFCO nutrient agar after 18 hr incubation period at 37 degree C. Type of data set: functional.

Beta-lactamase, sequence (P05364 whole entry): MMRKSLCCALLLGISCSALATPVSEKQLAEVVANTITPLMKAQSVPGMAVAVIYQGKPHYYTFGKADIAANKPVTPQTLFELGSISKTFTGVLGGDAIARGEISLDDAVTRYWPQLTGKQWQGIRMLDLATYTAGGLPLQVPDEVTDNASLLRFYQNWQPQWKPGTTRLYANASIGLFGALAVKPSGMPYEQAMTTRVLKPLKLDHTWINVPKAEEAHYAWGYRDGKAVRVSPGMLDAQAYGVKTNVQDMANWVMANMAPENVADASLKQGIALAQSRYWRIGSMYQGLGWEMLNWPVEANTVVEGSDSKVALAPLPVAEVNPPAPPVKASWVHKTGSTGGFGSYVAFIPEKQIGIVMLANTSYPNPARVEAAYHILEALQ
Beta-lactamase TEM, sequence (P62593 whole entry): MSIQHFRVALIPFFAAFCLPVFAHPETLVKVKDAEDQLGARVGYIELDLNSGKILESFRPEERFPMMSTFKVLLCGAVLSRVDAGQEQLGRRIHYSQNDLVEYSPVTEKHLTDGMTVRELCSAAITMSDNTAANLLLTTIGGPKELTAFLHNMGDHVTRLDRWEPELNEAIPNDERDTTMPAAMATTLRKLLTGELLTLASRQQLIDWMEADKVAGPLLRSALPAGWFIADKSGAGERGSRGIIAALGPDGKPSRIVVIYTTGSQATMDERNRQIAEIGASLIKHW

As for `COC1=C(C(=O)[O-])N2C(=O)[C@H]([C@@H](C)O)C2[C@@H]1C.[K+]` (some centres undefined), the MIC is 1 µg/mL against Staphylococcus aureus [1]; less than 0.5 µg/mL in the data set with Staphylococcus aureus [2]; more than 50 µg/mL in [3]; more than 50 µg/mL in the data set with Pseudomonas aeruginosa [4]; 5 µg/mL against Staphylococcus aureus [5]; 10 µg/mL in the data set with Escherichia coli [6]. Further, the MIC in the data set on Enterococcus sp. was more than 50 µg/mL; with Escherichia coli [7], 5 µg/mL; against Pseudomonas aeruginosa [9], more than 50 µg/mL; against Enterobacter cloacae, 25 µg/mL. Besides, the figures for the IC50 against Beta-lactamase and at Beta-lactamase TEM (read-out: IC50) were 82 nM and 230 nM, respectively. In addition, the half-life in [8] is 3.25 h.
Consider `COC1=C(C(=O)[O-])N2C(=O)[C@H]([C@@H](C)O)[C@H]2C1.[K+]`, for which the MIC in the data set with Staphylococcus aureus [2] was 1 µg/mL; in data set [3], 25 µg/mL; in the data set on Pseudomonas aeruginosa [4], more than 50 µg/mL; in the data set with Staphylococcus aureus [10], 2 µg/mL; against Staphylococcus aureus [5] it was 5 µg/mL; against Escherichia coli [6], 2 µg/mL. Also, the minimal inhibitory concentration (MIC) is 50 µg/mL against Enterococcus sp., 1 µg/mL in the data set with Escherichia coli [7], more than 50 µg/mL against Pseudomonas aeruginosa [9] and 5 µg/mL in the data set on Enterobacter cloacae. For the same compound, the IC50 is 510 nM against Beta-lactamase and 0.00034 M l-1 against Beta-lactamase TEM. Also, the half-life in data set [8] is 5.75 h.
Consider `COC1=C(C(=O)[O-])N2C(=O)[C@H]([C@@H](C)O)C2[C@H]1C.[K+]` (some centres undefined), for which the MIC is 25 µg/mL in the data set with Staphylococcus aureus [2]; more than 50 µg/mL in data set [3]; more than 50 µg/mL in the data set on Pseudomonas aeruginosa [4]; 25 µg/mL in the data set on Staphylococcus aureus [10]; more than 50 µg/mL against Staphylococcus aureus [5]; 1 µg/mL with Escherichia coli [6]. Further, the MIC against Enterococcus sp. was more than 50 µg/mL; in the data set on Escherichia coli [7], 0.5 µg/mL; against Pseudomonas aeruginosa [9], more than 50 µg/mL; against Enterobacter cloacae, 5 µg/mL. Moreover, the results for the IC50 on Beta-lactamase and at Beta-lactamase TEM (read-out: IC50) were 2100 nM and 130 nM, respectively. The same compound showed a half-life in data set [8] of 72 h.
